Non-standard residues stand in square brackets, D forms with d. Residues, ends and D or L forms follow the SMILES beside them. *: point of attachment. X2 = CC(C)(C)C[C@@H](N)C(=O)N[C@@H](Cc1cccnc1)C(=O)N[C@H](C(N)=O)[C@H](O*)c1ccccc1; Asn(3S-OH) = NC(=O)[C@@H](O)[C@H](N)C(=O)O; X1 = CC(C)[C@@H](O)[C@H](C)C(=O)*; aThr = C[C@H](O)[C@H](N)C(=O)O
Experiments:
[1] = test system: Staphylococcus aureus 133; type: cell-based; details: 133
Method: (§1) Determination of the Minimum Inhibitory Concentration (MIC):
(§2) The MIC is determined in the liquid dilution test in accordance with the NCCLS guidelines. Overnight cultures of Staphylococcus aureus 133, Enterococcus faecalis 27159, E. faecium 4147 and Streptococcus pneumoniae G9a are incubated with the described test substances in a 1:2 dilution series. The MIC determination is carried out with a cell count of 10^5 microbes per ml in Isosensitest medium (Difco, Irvine/USA), with the exception of S. pneumoniae which is tested in BHI broth (Difco, Irvine/USA) with 10% bovine serum with a cell count of 10^6 microbes per ml. The cultures are incubated at 37° C. for 18-24 hours, S. pneumoniae in the presence of 10% CO2.
(§3) The MIC is defined as the lowest concentration of each substance at which visible bacterial growth no longer occurs. The MIC values are reported in μg/ml.

[2] = test system: Streptococcus pneumoniae G9a; type: cell-based; details: G9a
Method: as §1, §2, §3

[3] = test system: E. faecium L4001; type: cell-based, Enterococcus faecium; details: L4001
[4] = test system: E. faecalis ICB 27159; type: cell-based, Enterococcus faecalis; details: ICB 27159
Method: as §1, §2, §3

[5] = Determination of the free fraction (fu) in plasma via Transil or ultrafiltration; type: in vitro ADME, rat; details: rat, plasma
Method: Principle of the Determination of the Free Fraction via Transil:
The method described herein for determining the free fraction (fu) of a test substance is divided into 2 parts:
a) Determination of the Transil®/buffer partitioning ratio (MAbuffer) by incubating the test substance in a Transil® buffer (pH 7.4) dispersion and subsequently determining the concentration in the dispersion and in the buffer supernatant.
b) Determination of the Transil®/plasma partitioning ratio (MAplasma) by incubating the test substance in a Transil® plasma dispersion and subsequently determining the concentration in the dispersion and in the plasma.
The quotient of the two partitioning ratios gives fu.
Where substances are highly protein-bound, the plasma is usually diluted with isotonic phosphate buffer (pH 7.4) and then suspended with Transil®. Determination of fu′ (free fraction in diluted plasma) in this diluted protein solution takes place in analogy to the determination of fu. The free fraction in undiluted plasma is calculated from fu′ and the dilution factor.
Concerning this method, compare also: Schuhmacher, Joachim; Kohlsdorfer, Christian; Buehner, Klaus; Brandenburger, Tim; Kruk, Renate, “High-throughput determination of the free fraction of drugs strongly bound to plasma proteins.” Journal of Pharmaceutical Sciences 2004, 93, 816-830.
Determination of the Membrane Affinity of a Test Substance After Partitioning Between Transil® and Buffer (MAbuffer):
All incubations are carried out in suitable glass vessels, e.g. glass vials, ground-joint test tubes. The total volume is usually 0.5-5 ml, and the Transil® volume is 10-100 μl. If the membrane affinities are expected to be high, the Transil® dispersion can be diluted up to 20 times with phosphate buffer of pH 7.4, e.g. Dulbecco's PBS. Phosphate buffer of pH 7.4 is introduced into the incubation vessels, and the Transil® is pipetted in after thorough mixing. The test substance is pipetted in at a concentration of, for example, 200 ng/ml, n=6. The proportion of organic solvents should be ≦2%. The mixtures are incubated at room temperature i.e. on a mini-shaker at an angle of about 45°, at about 400 rpm for 30 min. The 100% value is determined by taking at least one aliquot of, for example, 100 μl, and the remaining mixture is centrifuged at about 1800 g for about 10 min. […]
The plasma of the species to be investigated is filtered through a semipermeable membrane. The concentration of substance in the filtrate is measured, and the free fraction fU is calculated therefrom. […] The concentration of substance in the ultrafiltrate (Cu, unbound substance concentration) and in the plasma before centrifugation (C; total substance concentration) is measured. The free fraction is calculated by the formula fu (%)=Cu/C*100.

CC[C@H](C)[C@H](NC(=O)[C@@H](CCCNC(=N)N)NC(=O)[C@H](CC(C)C)NC(=O)[C@@H](C)[C@H](O)C(C)C)C(=O)N[C@H](C(=O)NCC(=O)N[C@H](C(=O)N[C@@H](CO)C(=O)O[C@H](c1ccccc1)[C@H](NC(=O)[C@H](Cc1cccnc1)NC(=O)[C@H](N)CC(C)(C)C)C(N)=O)[C@H](O)C(N)=O)[C@H](C)O.O=C(O)C(F)(F)F.O=C(O)C(F)(F)F.O=C(O)C(F)(F)F [Example 5, 3-tert-Butyl-D-alanyl-3-(pyridin-3-yl)-L-alanyl-de(1-D-leucyl-2-L-leucyl)lysobactin tristrifluoroacetate, reference compound] (X1-L[dR]I[aThr]G[Asn(3S-OH)]S-X2)
MIC S. aureus 133 [1]: 0.5 µg/mL | MIC S. pneumoniae G9a [2]: 0.5 µg/mL | MIC E. faecium L4001 [3]: 1 µg/mL | MIC E. faecalis ICB 27159 [4]: 1 µg/mL | fraction unbound at 30 min [5]: 0.086
